Source: patent US12064426B2, “Selective inhibitors of ROCK1 and ROCK2 protein kinases and uses thereof” (GENOSCO Inc., priority 2021, dated 2024)

Assays:
[1] = target: T1, Recombinant ROCK2 (amino acids 5-554) (Homo sapiens, UniProt O75116); assay: ROCK inhibition assay, LANCE Ultra TR-FRET kinase assay (ROCK2); format: biochemical; conditions: 4 μM ATP, 50 nM ULight-CREBtide substrate
T1 construct: ROCK2 (amino acids 5-554); by word order, ROCK2 from SignalChem
Procedure, shortened: (§1)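 LANCE Ultra TR-FRET kinase assay with recombinant ROCK1 (aa 1-477) or ROCK2 (aa 5-554), 50 nM ULight-CREBtide and ATP at 1 μM (ROCK1) or 4 μM (ROCK2) in HEPES pH 7.5 with MgCl2, 1 h at room temperature. EDTA stop with Eu anti-phospho-CREB Ser133 antibody; 665/615 nm read gives IC50.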

[2] = target: T2, Recombinant ROCK1 (amino acids 1-477) (Homo sapiens, UniProt Q13464); assay: ROCK inhibition assay, LANCE Ultra TR-FRET kinase assay (ROCK1); format: biochemical; conditions: 1 μM ATP, 50 nM ULight-CREBtide substrate
T2 construct: Recombinant ROCK1 (amino acids 1-477); by word order, ROCK1 from Carna Biosciences
Procedure, shortened: as §1

T1 sequence (O75116 5-554): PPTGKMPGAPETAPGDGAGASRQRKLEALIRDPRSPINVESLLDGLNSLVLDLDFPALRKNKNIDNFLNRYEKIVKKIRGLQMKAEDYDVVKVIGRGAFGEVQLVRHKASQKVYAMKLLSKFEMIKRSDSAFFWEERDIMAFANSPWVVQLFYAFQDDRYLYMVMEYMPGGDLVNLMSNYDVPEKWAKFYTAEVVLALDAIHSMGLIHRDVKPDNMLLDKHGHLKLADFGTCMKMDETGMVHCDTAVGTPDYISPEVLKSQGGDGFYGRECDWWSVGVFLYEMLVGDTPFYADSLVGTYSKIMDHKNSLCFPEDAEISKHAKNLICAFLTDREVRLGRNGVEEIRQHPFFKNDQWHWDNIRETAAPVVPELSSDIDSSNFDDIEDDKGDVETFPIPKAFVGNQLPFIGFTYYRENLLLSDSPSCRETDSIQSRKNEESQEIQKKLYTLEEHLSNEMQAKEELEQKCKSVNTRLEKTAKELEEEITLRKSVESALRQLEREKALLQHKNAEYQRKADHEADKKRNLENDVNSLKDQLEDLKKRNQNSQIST
T2 sequence (Q13464 1-477): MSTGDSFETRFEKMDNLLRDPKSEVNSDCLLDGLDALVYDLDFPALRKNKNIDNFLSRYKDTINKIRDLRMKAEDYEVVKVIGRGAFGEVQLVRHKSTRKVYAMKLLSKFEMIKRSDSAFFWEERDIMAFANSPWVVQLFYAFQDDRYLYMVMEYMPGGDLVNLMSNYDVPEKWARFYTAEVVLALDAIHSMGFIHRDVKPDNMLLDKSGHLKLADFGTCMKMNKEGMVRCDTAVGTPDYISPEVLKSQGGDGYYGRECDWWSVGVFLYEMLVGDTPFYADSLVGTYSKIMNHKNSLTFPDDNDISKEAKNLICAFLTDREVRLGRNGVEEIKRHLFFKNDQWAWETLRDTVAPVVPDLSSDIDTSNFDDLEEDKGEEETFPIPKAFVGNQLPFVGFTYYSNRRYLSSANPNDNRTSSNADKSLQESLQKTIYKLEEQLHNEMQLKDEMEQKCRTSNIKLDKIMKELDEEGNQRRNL

| Structure (SMILES) | IC50 [1] | IC50 [2] |
| --- | --- | --- |
| CNC(=O)c1cccc(Cn2cnc3cc(-c4conc4C)ccc3c2=O)c1 [Compound 411] | < 10 nM | 11 to 100 nM |
| Cc1nocc1-c1ccc2c(=O)n(Cc3cccc(C(=O)NC(C)C)c3)cnc2c1 [Compound 414] | 10 to 100 nM | 101 to 500 nM |
| Cc1nocc1-c1ccc2c(=O)n(Cc3cccc(C(=O)NCC4CCOCC4)c3)cnc2c1 [Compound 416] | < 10 nM | 11 to 100 nM |
| Cc1nocc1-c1ccc2c(=O)n(Cc3cccc(C(=O)NCC4CCN(C)CC4)c3)cnc2c1 [Compound 417] | < 10 nM | < 10 nM |
| Cc1nocc1-c1ccc2c(=O)n(Cc3cccc(C(=O)NCC4CCNCC4)c3)cnc2c1 [Compound 418] | < 10 nM | < 10 nM |
| Cc1nocc1-c1ccc2c(=O)n(Cc3cccc(C(=O)NCCc4cccnc4)c3)cnc2c1 [Compound 419] | < 10 nM | < 10 nM |
| Cc1nocc1-c1ccc2c(=O)n(Cc3cccc(C(=O)NCCN4CCOCC4)c3)cnc2c1 [Compound 420] | < 10 nM | 11 to 100 nM |
| Cc1nocc1-c1ccc2c(=O)n(Cc3cccc(C(=O)NCC(F)(F)F)c3)cnc2c1 [Compound 421] | < 10 nM | 11 to 100 nM |
| CNC(=O)c1cc(F)cc(Cn2cnc3cc(-c4conc4C)ccc3c2=O)c1 [Compound 422] | < 10 nM | 11 to 100 nM |
| CNC(=O)c1cccc(C(C)n2cnc3cc(-c4ccnn4C)ccc3c2=O)c1 (stereo not shown) [Compound 426] | < 10 nM | 11 to 100 nM |
| Cn1nccc1-c1ccc2c(=O)n(Cc3cccc(C(=O)N[C@H]4C[C@H](O)C4)c3)cnc2c1 [Compound 428] | < 10 nM | 11 to 100 nM |
| Cn1nccc1-c1ccc2c(=O)n(Cc3cccc(C(=O)N[C@H]4CC[C@@H](O)CC4)c3)cnc2c1 [Compound 429] | < 10 nM | 11 to 100 nM |
| Cn1nccc1-c1ccc2c(=O)n(Cc3cccc(C(=O)NCC4COC4)c3)cnc2c1 [Compound 431] | 10 to 100 nM | 11 to 100 nM |
| Cn1nccc1-c1ccc2c(=O)n(Cc3cccc(C(=O)NCCO)c3)cnc2c1 [Compound 432] | 10 to 100 nM | 101 to 500 nM |
| CNC(=O)c1cccc(Cn2cnc3cc(-c4ccnc(N)c4)ccc3c2=O)c1 [Compound 433] | 10 to 100 nM | 101 to 500 nM |
| Nc1cc(-c2ccc3c(=O)n(Cc4cccc(C(=O)NC5COC5)c4)cnc3c2)ccn1 [Compound 434] | 10 to 100 nM | 101 to 500 nM |
| Nc1cc(-c2ccc3c(=O)n(Cc4cccc(C(=O)NCC5CCOCC5)c4)cnc3c2)ccn1 [Compound 438] | 10 to 100 nM | 11 to 100 nM |
| CNC(=O)c1cccc([C@@H](C)n2cnc3cc(-c4cn[nH]c4C)ccc3c2=O)c1 [Compound 441] | < 10 nM | 11 to 100 nM |

| Structure (SMILES) | IC50 [1] | IC50 [2] |
| --- | --- | --- |
| C[C@H](c1cccc(C(=O)N(C)C)c1)n1cnc2cc(-c3cn[nH]c3C(F)(F)F)ccc2c1=O [Compound 442] | > 500 nM | > 501 nM |
| [2H]C([2H])([2H])NC(=O)c1cccc([C@@H](C)n2cnc3cc(-c4cn[nH]c4C(F)(F)F)ccc3c2=O)c1 [Compound 443] | < 10 nM | 11 to 100 nM |
| CC(C)NC(=O)c1cccc([C@@H](C)n2cnc3cc(-c4cn[nH]c4C(F)(F)F)ccc3c2=O)c1 [Compound 445] | < 10 nM | 11 to 100 nM |
| C[C@H](c1cccc(C(=O)NCc2ccncc2)c1)n1cnc2cc(-c3cn[nH]c3C(F)(F)F)ccc2c1=O [Compound 447] | < 10 nM | < 10 nM |
| C[C@H](c1cccc(C(=O)NC2CCN(C)CC2)c1)n1cnc2cc(-c3cn[nH]c3C(F)(F)F)ccc2c1=O [Compound 450] | < 10 nM | < 10 nM |
| C[C@H](c1cccc(C(=O)NCC2CCOCC2)c1)n1cnc2cc(-c3cn[nH]c3C(F)(F)F)ccc2c1=O [Compound 451] | < 10 nM | 11 to 100 nM |
| C[C@H](c1cccc(C(=O)NCC2COC2)c1)n1cnc2cc(-c3cn[nH]c3C(F)(F)F)ccc2c1=O [Compound 452] | < 10 nM | 11 to 100 nM |
| C[C@H](c1cccc(C(=O)NCCO)c1)n1cnc2cc(-c3cn[nH]c3C(F)(F)F)ccc2c1=O [Compound 453] | 10 to 100 nM | 11 to 100 nM |
| CNC(=O)c1cc([C@@H](C)n2cnc3cc(-c4cn[nH]c4C(F)(F)F)ccc3c2=O)ccc1F [Compound 456] | 10 to 100 nM | 101 to 500 nM |
| CNC(=O)c1cccc([C@@H](C)n2cnc3cc(-c4cn[nH]c4C(F)F)ccc3c2=O)c1 [Compound 457] | < 10 nM | 11 to 100 nM |
| C[C@H](c1cccc(C(=O)NCCO)c1)n1cnc2cc(-c3cn[nH]c3C(F)F)ccc2c1=O [Compound 459] | 10 to 100 nM | 101 to 500 nM |
| C[C@H](c1cccc(C(=O)NCCN(C)C)c1)n1cnc2cc(-c3cn[nH]c3C(F)F)ccc2c1=O [Compound 460] | < 10 nM | < 10 nM |
| C[C@H](c1cccc(C(=O)NCC2CCN(C)CC2)c1)n1cnc2cc(-c3cn[nH]c3C(F)F)ccc2c1=O [Compound 461] | < 10 nM | < 10 nM |
| CNC(=O)c1cc(F)cc([C@@H](C)n2cnc3cc(-c4cn[nH]c4C(F)F)ccc3c2=O)c1 [Compound 463] | < 10 nM | 11 to 100 nM |
| C[C@H](c1cccc(C(=O)NC2CCN(C)CC2)c1)n1cnc2cc(-c3cn[nH]c3Cl)ccc2c1=O [Compound 464] | < 10 nM | < 10 nM |
| CNC(=O)c1cccc([C@H](C)n2cnc3cc(-c4cn[nH]c4Cl)ccc3c2=O)c1 [Compound 468] | 10 to 100 nM | 101 to 500 nM |
| Cc1nocc1-c1ccc2c(=O)n([C@H](C)c3cccc(C(=O)NCC4CCN(C)CC4)c3)cnc2c1 [Compound 472] | < 10 nM | < 10 nM |
| Cc1nocc1-c1ccc2c(=O)n([C@H](C)c3cccc(C(=O)NCC4CCNCC4)c3)cnc2c1 [Compound 473] | < 10 nM | < 10 nM |

Now from value to molecule:

| IC50 [1] | IC50 [2] | Structure (SMILES) |
| --- | --- | --- |
| < 10 nM | < 10 nM | CN1CCC(NC(=O)c2cccc(Cn3cnc4cc(-c5cn[nH]c5Cl)ccc4c3=O)c2)CC1 [Compound 408] |
| < 10 nM | < 10 nM | O=C(NC1CCNCC1)c1cccc(Cn2cnc3cc(-c4cn[nH]c4Cl)ccc3c2=O)c1 [Compound 409] |
| < 10 nM | < 10 nM | CN1CCC(CNC(=O)c2cccc(Cn3cnc4cc(-c5cn[nH]c5Cl)ccc4c3=O)c2)CC1 [Compound 410] |
| < 10 nM | 11 to 100 nM | [2H]C([2H])([2H])NC(=O)c1cccc(Cn2cnc3cc(-c4conc4C)ccc3c2=O)c1 [Compound 412] |
| < 10 nM | 11 to 100 nM | Cc1nocc1-c1ccc2c(=O)n(Cc3cccc(C(=O)NCC4COC4)c3)cnc2c1 [Compound 415] |
| < 10 nM | 11 to 100 nM | [2H]C([2H])([2H])NC(=O)c1cc(F)cc(Cn2cnc3cc(-c4conc4C)ccc3c2=O)c1 [Compound 423] |
| < 10 nM | 11 to 100 nM | [2H]C([2H])([2H])NC(=O)c1cccc(Cn2cnc3cc(-c4ccnn4C)ccc3c2=O)c1 [Compound 425] |
| < 10 nM | 11 to 100 nM | Cn1nccc1-c1ccc2c(=O)n(Cc3cccc(C(=O)N[C@H]4C[C@@H](O)C4)c3)cnc2c1 [Compound 427] |
| < 10 nM | 11 to 100 nM | CN1CCC(NC(=O)c2cccc(Cn3cnc4cc(-c5ccnn5C)ccc4c3=O)c2)CC1 [Compound 430] |
| 10 to 100 nM | 101 to 500 nM | Nc1cc(-c2ccc3c(=O)n(Cc4cccc(C(=O)NC5CCOCC5)c4)cnc3c2)ccn1 [Compound 435] |
| < 10 nM | 11 to 100 nM | CN1CCC(NC(=O)c2cccc(Cn3cnc4cc(-c5ccnc(N)c5)ccc4c3=O)c2)CC1 [Compound 436] |
| > 500 nM | > 501 nM | CNC(=O)c1cccc(Cn2cnc3cc(-c4cnnn4C)ccc3c2=O)c1 [Compound 439] |
| < 10 nM | 11 to 100 nM | CNC(=O)c1cccc([C@H](C)n2cnc3cc(-c4cn[nH]c4C(F)(F)F)ccc3c2=O)c1 [Compound 444] |
| > 500 nM | > 501 nM | C[C@H](c1cccc(C(=O)N(C)Cc2ccncc2)c1)n1cnc2cc(-c3cn[nH]c3C(F)(F)F)ccc2c1=O [Compound 446] |
| < 10 nM | 11 to 100 nM | C[C@H](c1cccc(C(=O)NC2CCOCC2)c1)n1cnc2cc(-c3cn[nH]c3C(F)(F)F)ccc2c1=O [Compound 449] |
| < 10 nM | 11 to 100 nM | CNC(=O)c1cc(F)cc([C@@H](C)n2cnc3cc(-c4cn[nH]c4C(F)(F)F)ccc3c2=O)c1 [Compound 454] |
| < 10 nM | 11 to 100 nM | [2H]C([2H])([2H])NC(=O)c1cc(F)cc([C@@H](C)n2cnc3cc(-c4cn[nH]c4C(F)(F)F)ccc3c2=O)c1 [Compound 455] |
| < 10 nM | 11 to 100 nM | [2H]C([2H])([2H])NC(=O)c1cccc([C@@H](C)n2cnc3cc(-c4cn[nH]c4C(F)F)ccc3c2=O)c1 [Compound 458] |
| < 10 nM | 11 to 100 nM | C[C@H](c1cccc(C(=O)NCC2CCOCC2)c1)n1cnc2cc(-c3cn[nH]c3C(F)F)ccc2c1=O [Compound 462] |
| < 10 nM | < 10 nM | C[C@H](c1cccc(C(=O)NCC2CCN(C)CC2)c1)n1cnc2cc(-c3cn[nH]c3Cl)ccc2c1=O [Compound 465] |
| < 10 nM | 11 to 100 nM | [2H]C([2H])([2H])NC(=O)c1cccc([C@@H](C)n2cnc3cc(-c4cn[nH]c4Cl)ccc3c2=O)c1 [Compound 467] |
| > 500 nM | > 501 nM | Cc1nocc1-c1ccc2c(=O)n([C@H](C)c3cccc(C(=O)N(C)C)c3)cnc2c1 [Compound 470] |
| < 10 nM | 11 to 100 nM | [2H]C([2H])([2H])NC(=O)c1cccc([C@@H](C)n2cnc3cc(-c4conc4C)ccc3c2=O)c1 [Compound 471] |
